Data set [1] can be described thus: Mouse weight loss and haematological indices in M109-bearing mice. The conditions noted are these: Mean ± SEM. Type of data set: in vivo. The protocol: The tumour cells were passaged in CD2F1 mice by preparing a brei from the tumour and injecting it sc.^20 Dp44mT was dissolved in 30% (v/v) propylene glycol in saline and injected iv 4 days after tumour engraftment, twice daily for 5 days followed by a “rest period” of 2 days when the animal was not injected. On the twelfth day after tumour implantation, mice were sacrificed using methoxyfluorane and cardiac puncture performed. Blood counts and erythrocyte indices were measured using a Sysmex Blood Counter (Prince of Wales Hospital, Sydney, Australia). Mouse body weight changes during the treatment period were recorded. The tumours were weighed and fixed for histological examination. The experimental groups consisted of eight mice for the control and each treatment (Table 5).

A further data set relates to Bcl-2. Briefly: Mitochondrial Bcl-2 protein level in M109 cells. Type of data set: cell-based, mouse. The conditions noted are these: 1 μM. The protocol:
(§1) Considering the roles of Bcl-2 and Bax in the mitochondrial pathway of apoptosis and their role in h-cytc release, ^8,11,12 the effect of Dp44mT (1 μM) on the protein levels of these molecules was assessed (FIG. 15B).

The test system of another data set is M109 lung carcinoma. Briefly: Inhibition of M109 lung carcinoma growth in vivo. Further details: species or system mouse. The conditions noted are these: 0.4 mg/kg iv twice daily for 5 days, day 12. The protocol: Inhibition of M109 Lung Cancer Cell Growth by Iron Chelators In Vivo Female CD2F1 mice aged 8-10 weeks old were sc implanted with 1×10^5 M109 cells. The tumour cells were passaged in CD2F1 mice by preparing a brei from the tumour and injecting it sc.^20 Dp44mT was dissolved in 30% (v/v) propylene glycol in saline and injected iv 4 days after tumour engraftment, twice daily for 5 days followed by a “rest period” of 2 days when the animal was not injected. On the twelfth day after tumour implantation, mice were sacrificed using methoxyfluorane and cardiac puncture performed. Blood counts and erythrocyte indices were measured using a Sysmex Blood Counter (Prince of Wales Hospital, Sydney, Australia). Mouse body weight changes during the treatment period were recorded. The tumours were weighed and fixed for histological examination. The experimental groups consisted of eight mice for the control and each treatment (Table 5).
As a relevant positive control, animals were administered Triapine® at its MTD (6 mg/kg). The tumour weight was measured on the twelfth day after the tumour cell implantation.

The nature of data set [2]: Maximum tolerated dose in CD2F1 hybrid mice. Type of data set: in vivo. The conditions noted are these: CD2F1 mice, iv twice a day. The procedure: BALB/c and DBA/2 mice were obtained from Animal Resources Centre (University of New South Wales (UNSW), Sydney, Australia) and crossed to produce CD2F1 animals (all procedures used were approved by the Animal Ethics Committee, UNSW). Groups of eight female CD2F1 mice (8-10 weeks old) were fed and watered ad-libitum, and injected via the tail vein with compounds being studied in 30% propylene glycol in 0.9% sterile saline, twice a day, 6 h apart, 5 days/week for 2 weeks. The maximum tolerated dose (MTD) was defined as the dose at which 30% of a cohort either died or lost weight in excess of 10%.^19

For another data set, the system named is Bax. As to the kind of experiment: Bax protein level in M109 cells. Type of data set: cell-based, mouse. As to conditions: 1 μM, 48 h. The procedure:
as §1

The next data set has as its system active caspase-8. Briefly: Protein level of active caspase-8 in M109 cells (western blotting). Type of data set: cell-based, mouse. The conditions noted are these: 1 μM. The procedure: FIG. 14. Effect of Dp44mT (1 μM) on the (A,B) protein levels of active caspase-3, -8 and -9, and (C,D) the activity of caspase-3, -8 and -9 in cultured M109 cells in the absence (C) and presence (D) of cell-permeable caspase inhibitors. (A) Caspase-3, -8, and -9 levels after Dp44mT treatment at indicated times as detected by western blotting (upper panel). The anti-β-actin antibody was used to ensure equal protein loading (lower panel). (B) Densitometric analysis of the expression of caspase-3, -8, and -9 as a function of time normalized to β-actin (C) Caspase activity induced by Dp44mT (1 μM) at 0-48 h was expressed as a percentage of the 0 h time value. (D) Cell-permeable inhibitors of caspase-3, -8 or -9 at 1 μM prevented activation of these enzymes when incubated with Dp44mT (1 μM) for 48 h. Results are mean±SEM of three separate experiments.
Rabbit anti-active caspase-3 antibody, rabbit anti-active caspase-8 antibody and Annexin V fluorescein isothiocyanate (FITC) were from BD PharMingen (San Diego, Calif., USA). Anti-h-cytc MoAb was from R&D Systems Minneapolis, Minn., USA). Rabbit anti-active caspase-9 antibody, mouse anti-Bcl-2 and mouse anti-Bax antibodies were obtained from Santa Cruz (Santa Cruz, Calif., USA). Mouse anti-mouse β-actin antibody, horseradish peroxidase-conjugated antirabbit, and anti-mouse IgG were from Sigma Chemical Co. (St. Louis, Mo., USA).
To determine the role of caspase activation in Dp44mT-induced apoptosis in M109 cells, protein levels of active caspase-3, -8 and -9 (FIG. 14A,B) and their enzymatic activity (FIG. 14C,D) were examined.
In general terms: In western blotting, separated proteins are transferred to a membrane and probed.

For a further data set, the system named is caspase-8. Briefly: Caspase-8 activity in M109 cells (BD Apolert Caspase Assay Plate). The conditions noted are these: 1 μM. The class given is cell-based, mouse. The procedure: Cultured M109 cells were treated with or without Dp44mT (1 μM) for 0-48 h at 37° C. Cells were lysed^27 and caspase activities were determined using the BD Apolert™ Caspase Assay Plate (BD Biosciences, San Diego, Calif., USA). Cell-permeable pan-caspase-3, -8, and -9 inhibitors (BD Biosciences) were included as inhibitory controls.

The subject of data set [3] is SK-N-MC neuroepithelioma cells. Briefly: 3H-leucine incorporation by SK-N-MC cells. The class given is cell-based, human. The conditions noted are these: 20 h incubation then 2 h label; Mean ± SD, 4 experiments. The protocol:
(§2) After a 20 h incubation of the SK-N-MC cells with a selection of analogues, ^3H-thymidine, ^3H-leucine, or ^3H-uridine (1 μCi/ml) was added for 2 h at 37° C. The cells were detached from the 96 well plate using 1 mM EDTA in Ca(II)/Mg(II)-free PBS and collected and washed using a cell harvester (Tomtec Harvester 96, Linbrook, Queensland, Australia). Radioactivity was measured on a P-scintillation counter (LKB Wallace, Turku, Finland).

Data set [4] deals with SK-N-MC neuroepithelioma cells. Briefly: 3H-thymidine incorporation by SK-N-MC cells. The class given is cell-based, human. The conditions noted are these: 20 h incubation then 2 h label; Mean ± SD, 4 experiments. The protocol: as §2
(In general: Incorporation of labelled thymidine or its analogues reports DNA synthesis.)

In data set [5] the test system is SK-N-MC neuroepithelioma cells. Briefly: 3H-uridine incorporation by SK-N-MC cells. Type of data set: cell-based, human. The conditions noted are these: 20 h incubation then 2 h label; Mean ± SD, 3 experiments. The protocol: as §2

Where “and” joins values, the source holds several entries; their conditions need not be identical. Identical values can stand only once.

Regarding `CN(C)C(=S)NN=C(c1ccccn1)c1ccccn1` [Dp44mT, di-2-pyridylketone 4,4-dimethyl-3-thiosemicarbazone], the figures for the Body weight loss in [1] (Dp44mT 0.3 mg/kg) and in data set [1] (Dp44mT 0.4 mg/kg) were 1.3 ± 0.3 g and 1.1 ± 0.2 g, respectively. Further, the Haematocrit in [1] (Dp44mT 0.3 mg/kg) was determined as 0.40 ± 0.03; in data set [1] (Dp44mT 0.4 mg/kg), 0.40 ± 0.01. In addition, the Haemoglobin in [1] (Dp44mT 0.3 mg/kg) stood at 13.3 ± 0.5 g/dL; in [1] (Dp44mT 0.4 mg/kg), 11.8 ± 0.8 g/dL. The Platelets in data set [1] (Dp44mT 0.3 mg/kg) was 1019 ± 87 10^9/L; in [1] (Dp44mT 0.4 mg/kg), 636 ± 88 10^9/L. Moreover, the results for the RBC in data set [1] (Dp44mT 0.3 mg/kg) and in [1] (Dp44mT 0.4 mg/kg) were 8.9 ± 0.4 10^12/L and 8.0 ± 0.6 10^12/L, respectively. Also, the figures for the WBC in data set [1] (Dp44mT 0.3 mg/kg) and in data set [1] (Dp44mT 0.4 mg/kg) were 4.2 ± 0.4 10^9/L and 3.9 ± 0.6 10^9/L, respectively. Moreover, the Bcl-2 protein level is recorded as 69 % of the 0 h time point in the data set on Bcl-2 (2 h) and 37 % of the 0 h time point in the data set with Bcl-2 (48 h). For the same molecule, the tumour weight in the data set on M109 lung carcinoma is 47 % of control. In [2], the “maximum tolerated dose (MTD)” value is 0.4 mg/kg. Besides, the Bax expression in the data set on Bax is 500 % of that found at the 0 h time point. Moreover, the “caspase-8 protein level” value in the data set on active caspase-8 (2 h) is listed as “not increased”; in the data set with active caspase-8 (6 h) it was 150 % of the control; in the data set on active caspase-8 (12 h) it was 400 % of the control; with active caspase-8 (24 h), “about 4 fold that of control cells”; in the data set on active caspase-8 (48 h), 3.4 fold that of control cells. The caspase-8 activity in the data set on caspase-8 (12 h) was 299 % of the control. In addition, the “caspase-8 activity (plateau)” value in the data set on caspase-8 (after 24 h) is 400-600 % of the control.
For `CC(=O)N(O)CCCCCNC(=O)CCC(=O)N(O)CCCCCNC(=O)CCC(=O)N(O)CCCCCN` [DFO, desferrioxamine], the “3H-Leucine Incorporation” value in data set [3] worked out at 9 ± 1 % Control. In addition, the “3H-Thymidine Incorporation” value in data set [4] was 29 ± 13 % Control and 29 + 13 % Control. For the same molecule, the “3H-Uridine Incorporation” value in [5] worked out at 34 ± 5 % Control.
